Experimental data as given in ChEMBL document CHEMBL6087460, “Generating a Peptide Library Using the Repeats of Amino Acid Scaffolds Created by Sliding the Framework of a 7-mer Human Chemerin Segment and Discovery of Potent Antibacterial and Antimycobacterial Peptides” (J Med Chem, 2025).
Activity calls are given as the source filed them. The calls are words filed in the database; no cut-off is given here.

Key:
[1] = Retention time of compound by RP-HPLC method; type: physicochemical
[2] = Hemolytic activity in human RBC at 100 uM measured after 40 mins by absorbance based assay relative to control; type: toxicity, cell-based, Erythrocyte; conditions: for hemolysis at 40 min, 100 µM: human red blood cells, read-out: Activity; for Activity: erythrocyte, 40 min, 100 µM
[3] = system: Escherichia coli; assay: Antibacterial activity against Escherichia coli ATCC 25922 incubated for 16 to 18 hrs by broth dilution assay; type: functional; conditions: time 16-18 hrs
[4] = system: Klebsiella pneumoniae; assay: Antibacterial activity against Klebsiella pneumoniae ATCC 27736 incubated for 16 to 18 hrs by broth dilution assay; type: functional; conditions: time 16-18 hrs
[5] = system: Pseudomonas aeruginosa; assay: Antibacterial activity against Pseudomonas aeruginosa ATCC BAA-427 incubated for 16 to 18 hrs by broth dilution assay; type: functional; conditions: time 16-18 hrs
[6] = system: Staphylococcus aureus; assay: Antibacterial activity against Staphylococcus aureus ATCC 25923 incubated for 16 to 18 hrs by broth dilution assay; type: functional; conditions: time 16-18 hrs
[7] = system: Bacillus subtilis; assay: Antibacterial activity against Bacillus subtilis 6633 incubated for 16 to 18 hrs by broth dilution assay; type: functional; conditions: time 16-18 hrs
[8] = system: Staphylococcus aureus; assay: Antibacterial activity against methicillin-resistant Staphylococcus aureus 33591 incubated for 16 to 18 hrs by broth dilution assay; type: functional; conditions: time 16-18 hrs
[9] = system: Staphylococcus aureus; assay: Antibacterial activity against methicillin-resistant Staphylococcus aureus BAA-44 incubated for 16 to 18 hrs by broth dilution assay; type: functional; conditions: time 16-18 hrs
[10] = Hemolytic activity in human RBC measured after 40 mins by absorbance based assay; type: toxicity, cell-based, Erythrocyte; conditions: human red blood cells
[11] = Stability in 10 percent human serum assessed as compound remaining measured after 60 mins by RP-HPLC analysis; type: ADME, cell-free; conditions: 10% human serum, read-out: Stability
[12] = system: Escherichia coli; assay: Bactericidal activity against Escherichia coli ATCC 25922 incubated for 16 to 18 hrs; type: functional; conditions: time 16-18 hrs
[13] = system: Escherichia coli; assay: Antibacterial activity against Escherichia coli ATCC 25922 incubated for 16 to 18 hrs in presence of 10 percent human serum by broth dilution assay; type: functional; conditions: time 16-18 hrs
[14] = system: Staphylococcus aureus; assay: Bactericidal activity against Staphylococcus aureus ATCC 25923 incubated for 16 to 18 hrs; type: functional; conditions: time 16-18 hrs
[15] = system: Staphylococcus aureus; assay: Antibacterial activity against Staphylococcus aureus ATCC 25923 incubated for 16 to 18 hrs in presence of 10 percent human serum by broth dilution assay; type: functional; conditions: time 16-18 hrs
[16] = (§1) Cytotoxicity against mouse 3T3-L1 cells assessed as cell viability at 100 uM incubated for 24 hrs by MTT assay relative to control; type: toxicity, cell-based; conditions: 3T3-L1 cells, read-out: Activity
[17] = (§2) Cytotoxicity against rat L6 cells assessed as cell viability at 100 uM incubated for 24 hrs by MTT assay relative to control; type: toxicity, cell-based; conditions: L6 cells, read-out: Activity
[18] = system: Escherichia coli; assay: Bactericidal activity against Escherichia coli ATCC 25922 at MIC incubated for 60 mins by time kill assay; type: functional, organism-based
[19] = system: Staphylococcus aureus; assay: Bactericidal activity against Staphylococcus aureus ATCC 25923 at MIC incubated for 60 mins by time kill assay; type: functional, organism-based
[20] = system: Escherichia coli; assay: Induction of membrane depolarization in Escherichia coli ATCC 25922 by diSC3-5 dye based analysis; type: functional, organism-based
[21] = system: Staphylococcus aureus; assay: Induction of membrane depolarization in Staphylococcus aureus ATCC 25923 by diSC3-5 dye based analysis; type: functional, organism-based
[22] = system: Escherichia coli; assay: Disruption of plasma membrane integrity in Escherichia coli ATCC 25922 by SYTOX-Green uptake assay; type: functional, organism-based
[23] = system: Staphylococcus aureus; assay: Disruption of plasma membrane integrity in Staphylococcus aureus ATCC 25923 by SYTOX-Green uptake assay; type: functional, organism-based
[24] = system: Escherichia coli; assay: Disruption of membrane integrity in Escherichia coli ATCC 25922 by PI staining based analysis; type: functional, organism-based
[25] = system: Staphylococcus aureus; assay: Disruption of membrane integrity in Staphylococcus aureus ATCC 25923 by PI staining based analysis; type: functional, organism-based
[26] = Hemolytic activity in human RBC assessed as disruption of membrane integrity by Alexa Fluor-Annexin V staining based analysis; type: toxicity, cell-based; conditions: erythrocyte
[27] = system: Mycolicibacterium smegmatis; assay: Antitubercular activity against Mycobacterium smegmatis incubated for 24 hrs by rezasurin dye based assay; type: functional
[28] = system: 3T3-L1; assay: as §1; type: toxicity, cell-based; conditions: 3t3-l1, 24 h, 100 µM
[29] = system: L6; assay: as §2; type: toxicity, cell-based; conditions: l6, 24 h, 100 µM
[30] = Toxicity in BALB/c mouse assessed as animal survival at 15 mg/kg, iv administered thrice at 2 hrs interval measured after 7 days; type: organism-based; conditions: in vivo, 168 h, time 7 day
[31] = Toxicity in BALB/c mouse assessed as change in AST level at 15 mg/kg, iv administered thrice at 2 hrs interval measured after 7 days; type: organism-based; conditions: in vivo, 168 h, time 7 day
[32] = Toxicity in BALB/c mouse assessed as change in ALT level at 15 mg/kg, iv administered thrice at 2 hrs interval measured after 7 days; type: organism-based; conditions: in vivo, 168 h, time 7 day
[33] = Toxicity in BALB/c mouse infected with Escherichia coli ATCC 25922 assessed as animal survival at 5 mg/kg, iv administered thrice at 1,3 and 5 hrs post-infection measured after 7 days; type: organism-based; conditions: in vivo, 168 h, time 7 day
[34] = Toxicity in BALB/c mouse infected with Escherichia coli ATCC 25922 assessed as animal survival at 2.5 mg/kg, iv administered thrice at 1,3 and 5 hrs post-infection measured after 7 days; type: organism-based; conditions: in vivo, 168 h, time 7 day
[35] = system: Escherichia coli; assay: Antibacterial activity against Escherichia coli ATCC 25922 infected in BALB/c mouse assessed as bacterial load in blood at 5 mg/kg, iv administered thrice at 1,3 and 5 hrs post-infection measured after 24 hrs post-last dose (Rvb ~ 4 x10^6 CFU/mL); type: functional; conditions: time 29 hrs
[36] = system: Escherichia coli; assay: Antibacterial activity against Escherichia coli ATCC 25922 infected in BALB/c mouse assessed as bacterial count in liver at 5 mg/kg, iv administered thrice at 1,3 and 5 hrs post-infection measured after 24 hrs post-last dose (Rvb ~ 2.3 x10^7 CFU/mL); type: functional; conditions: time 29 hrs
[37] = system: Escherichia coli; assay: Antibacterial activity against Escherichia coli ATCC 25922 infected in BALB/c mouse assessed as bacterial count in spleen at 5 mg/kg, iv administered thrice at 1,3 and 5 hrs post-infection measured after 24 hrs post-last dose (Rvb ~ 1.9 x10^7 CFU/mL); type: functional; conditions: time 29 hrs
[38] = system: Escherichia coli; assay: Antibacterial activity against Escherichia coli ATCC 25922 infected in BALB/c mouse assessed as bacterial count in kidney at 5 mg/kg, iv administered thrice at 1,3 and 5 hrs post-infection measured after 24 hrs post-last dose (Rvb ~ 1.8 x10^7 CFU/mL); type: functional; conditions: time 29 hrs
[39] = system: Escherichia coli; assay: Antibacterial activity against Escherichia coli ATCC 25922 infected in BALB/c mouse assessed as bacterial count in blood at 5 mg/kg, iv administered thrice at 1,3 and 5 hrs post-infection measured after 24 hrs post-last dose (Rvb ~ 9.6 x10^6 CFU/mL); type: functional; conditions: time 29 hrs

| Substance | Retention_time [1] | MIC [3] | MIC [4] | MIC [5] | MIC [6] | MIC [7] | MIC [8] | MIC [9] | HC50 at 40 min [10] | MBC [12] | MIC [13] | MBC [14] | MIC [15] | Activity [18] | Activity [19] | Activity [20] | Activity [21] | Activity [22] | Activity [23] | Activity [24] | also measured |
| --- | --- | --- | --- | --- | --- | --- | --- | --- | --- | --- | --- | --- | --- | --- | --- | --- | --- | --- | --- | --- | --- |
| H-KVLKVLKVLKVLKVL-OH | 20.77 min | 1.8 µM | 3.6 µM | 14.5 µM | 3.6 µM | 3.6 µM | 3.6 µM | 3.6 µM | 0.256 mM |  |  |  |  |  |  |  |  |  |  |  | hemolysis at 40 min, 100 µM [2]: 20%; remaining at 1 h [11]: 65% |
| H-LGRLLGRLLGRL-OH | 15.4 min | 9.4 µM | 37.4 µM | 37.4 µM | 9.4 µM | 9.4 µM | 9.4 µM | 4.7 µM | 2 mM | 18.2 µM | 18.2 µM | 18.2 µM | 18.2 µM | Active; Exhibited Rapid Kinetics | Active; Exhibited Rapid Kinetics | Active | Active | Active | Active | Active | Activity [2]: Non-toxic; viability at 24 h, 100 µM [16]: > 80%; viability at 24 h, 100 µM [17]: > 80%; Activity [25]: Active; Activity [26]: Non-toxic; MIC [27]: 5 µM |
| H-RLRLRLRLRL-OH | 15.27 min | 2.3 µM | 18.3 µM | 18.3 µM | 4.6 µM | 4.6 µM | 18.3 µM | 18.3 µM | 1.82 mM | 4.6 µM | 4.6 µM | 9.2 µM | 9.2 µM | Active; Exhibited Rapid Kinetics | Active; Exhibited Rapid Kinetics | Active | Active | Active | Active | Active | Activity [2]: Non-toxic; Activity [28]: Toxic; Activity [29]: Toxic; Activity [25]: Active; Activity [26]: Non-toxic; remaining at 1 h [11]: 70%; Activity [30]: Toxic; Activity [31]: Non-toxic; Activity [32]: Non-toxic; Survival [33]: 80%; Survival [34]: 20%; Activity [35]: 7700 CFU/ml; Activity [36]: 2.7 10^4CFU/ml; Activity [37]: 6.8 10^4CFU/ml; Activity [38]: 2.6 10^4CFU/ml; Activity [39]: 2.4 10^4CFU/ml; MIC [27]: 10 µM |
| H-RLVRLVRLVRLVRLV-OH | 20.78 min | 1.7 µM | 1.7 µM | 6.7 µM | 1.7 µM | 1.7 µM | 3.4 µM | 1.7 µM | 0.232 mM | 6.8 µM | 6.8 µM | 3.4 µM | 3.4 µM | Active; Exhibited Rapid Kinetics | Active; Exhibited Rapid Kinetics | Active | Active | Active | Active | Active | hemolysis at 40 min, 100 µM [2]: 20%; Activity [28]: Toxic; Activity [29]: Toxic; Activity [25]: Active; Activity [26]: Non-toxic; MIC [27]: 5 µM |
